This note sets out measurements from PubChem BioAssay (NCI).

Holding throughout (test): growth of human tumour cells (NCI), 48 h
The test system of assay [1] is SNB-19 CNS.
In assay [2] the test system is SK-OV-3 ovarian.
Assay [3] relates to LOX IMVI melanoma.
For assay [4], the system named is UACC-62 melanoma.
For assay [5], the system named is CAKI-1 renal.
Assay [6] has as its system EKVX NSCLC.
In assay [7] the test system is TK-10 renal.
The test system of assay [8] is MALME-3M melanoma.
For assay [9], the system named is U251 CNS.
For assay [10], the system named is IGROV1 ovarian.

SMILES strings stand for the structures.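 Briefly, cells in 96-well plates were exposed to five compound concentrations for 48 h, and endpoints were estimated by linear interpolation. GI50 is the concentration that inhibits growth by half. At the TGI there is no net growth.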

Consider `O=C1C(c2c(O)[nH]c3ccc(I)cc23)=Nc2ccccc21`, for which the TGI was 42.8 µM in assay [1]; 22.8 µM in [2]; 34.4 µM in assay [3]; 21.3 µM in assay [4]; more than 96.5 µM in assay [5]; more than 49.4 µM in assay [6]. Besides, the TGI in [7] is 17.9 µM; in assay [8], more than 86.1 µM; in assay [9], 7.36 µM; in [10], 9.24 µM.

As for `CCOC(=O)[C@H](CO)Nc1c(O)c2c(c(O)c1Cl)C(=O)C=CC2=O`, the TGI in assay [1], in assay [2], in assay [3], in [4], in assay [5] and in [6] was more than 10 µM throughout. Also, the TGI in assay [7], in assay [8], in assay [9] and in assay [10] was more than 10 µM in each case.

Take `N#Cc1c(O)c(C=O)c(=O)n2c1[nH]c1ccccc12`: the TGI in [1], in assay [2], in [3], in [4], in [5] and in assay [6] was more than 100 µM throughout. For the same molecule, the TGI in assay [7], in [8], in assay [9] and in [10] was more than 100 µM throughout.

With `CCOC(=O)C1=C(C)N(c2ccc(Cl)cc2)C2(O)C=CC(Nc3ccc(Cl)cc3)=C3C(=O)N(c4ccccc4)C(=O)C312` (stereo not given), the TGI turned out to be 52.3 µM in assay [1]; 24.9 µM in assay [2]; 4.36 µM in assay [3]; 7.15 µM in [4]; 13.5 µM in assay [5]; 52.1 µM in assay [7]. Besides, the TGI was 33.7 µM in assay [8], 39.5 µM in [9] and 21.9 µM in [10].

Regarding `CON(C(=O)OC(C)(C)C)c1ccccc1`, the TGI in assay [1], in [2], in assay [3], in assay [4], in assay [5] and in assay [6] was more than 100 µM in each case. The TGI in [7], in assay [8], in assay [9] and in assay [10] was more than 100 µM each time.

For the molecule `CN(C)CCCN=c1c2ccccc2n(C)c2[nH]c(=O)n(C)c(=O)c12`, the TGI is more than 64.4 µM in assay [1]; 50.3 µM in [2]; 39.1 µM in assay [3]; 24.7 µM in assay [4]; more than 100 µM in assay [5]; 28.9 µM in [6]. The TGI in assay [7] was 25.7 µM; in assay [8], 11 µM; in assay [9] it was 15 µM; in assay [10] it was more than 100 µM.

Consider `COc1cc(C2c3cc4c(cc3OC(NNc3ccccc3)C2C)OCO4)cc(OC)c1O` (stereo not given), for which the TGI is 32.5 µM in assay [1]; 22.7 µM in [2]; 19 µM in assay [3]; 6.03 µM in [4]; more than 92 µM in [5]; 69.9 µM in assay [6]. Also, the TGI in assay [7] worked out at 23.6 µM; in assay [8] it was 11 µM; in assay [9], 16.3 µM; in assay [10], 24.6 µM.

Take `COc1ccc(/C=C(\C2=NC(=O)CS2)c2nc3ccccc3[nH]2)cc1`: the TGI in assay [1] is more than 100 µM; in assay [2], 60 µM; in assay [4], more than 100 µM; in assay [5], more than 100 µM; in assay [6], more than 100 µM; in assay [7] it was more than 100 µM. Moreover, the TGI in [8], in [9] and in assay [10] was more than 100 µM throughout.

As to `O=C1c2ccccc2C(=O)c2c(NCC3CO3)cccc21` (stereo not given), the TGI is more than 100 µM in [1]; more than 100 µM in [2]; 5.38 µM in assay [3]; more than 45.9 µM in [4]; 77.3 µM in assay [5]; more than 57.6 µM in assay [6]. Also, the TGI was more than 100 µM in [7], more than 100 µM in assay [8], more than 100 µM in assay [9] and more than 60.3 µM in assay [10].

For `CC(C)(CO)NC(=O)c1cccs1`, the TGI in assay [1], in assay [2], in assay [3], in [4], in assay [5] and in assay [6] was more than 100 µM each time. The TGI in [7], in [8], in [9] and in assay [10] was more than 100 µM each time.

As to `O=C(CBr)NCCc1c[nH]c2ccccc12`, the TGI in [1] stood at 20 µM; in [2], 7.31 µM; in assay [3], 2.79 µM; in [4], 3.29 µM; in [5] it was 1.91 µM; in [6] it was 3.72 µM. Moreover, the TGI was determined as 3.37 µM in assay [7], 9.41 µM in [8], 3.53 µM in [9] and 4.22 µM in assay [10].

As for `Cc1ccc(Cc2n[nH]c(=O)n2N2C(=O)c3ccccc3C2=O)cc1`, the TGI in assay [1], in [3], in assay [4], in assay [5], in assay [6] and in assay [7] was more than 100 µM each time. For the same molecule, the TGI in assay [8], in [9] and in assay [10] was more than 100 µM in each case.

For `CC(C)(/C=N/O)/[N+]([O-])=C/c1ccccc1`, the TGI in assay [1], in [2], in assay [3], in assay [4], in [5] and in [6] was more than 100 µM in each case. The TGI in [7], in [8], in assay [9] and in [10] was more than 100 µM in each case.

Take `COc1ccc(OC)c(-c2cc(=O)c3cc4c(cc3[nH]2)OCO4)c1`: the TGI in assay [1] is more than 100 µM; in [2], 17.7 µM; in assay [3] it was more than 100 µM; in assay [4], more than 100 µM; in assay [5] it was more than 65.7 µM; in [6], more than 100 µM. Further, the TGI is more than 83.3 µM in [7], more than 100 µM in [8], more than 77.9 µM in [9] and more than 100 µM in assay [10].

As to `O=C(NCCC1CN(S(=O)(=O)C(F)(F)F)c2ccccc21)OCc1ccccc1` (stereo not given), the TGI in [1], in assay [2], in [4], in [5], in [6] and in assay [8] was more than 100 µM throughout. Also, the TGI in [9] and in [10] was more than 100 µM in each case.

Take `O=C1CCc2ccccc2O1`: the TGI in assay [1], in assay [2], in assay [3], in [4], in assay [5] and in assay [6] was more than 100 µM each time. In addition, the TGI in [7], in [8], in [9] and in assay [10] was more than 100 µM each time.

`Cc1cc2c(cc1-c1cc3c(cc1C)C(C(C)C)=C(O)C(=O)/C3=C\Nc1ccccn1)/C(=C/Nc1ccccn1)C(=O)C(O)=C2C(C)C`: the TGI in [1], in assay [3], in [4], in [5], in assay [6] and in assay [7] was more than 100 µM in each case. Further, the TGI was 67.6 µM in assay [8], more than 100 µM in assay [9] and more than 100 µM in [10].

Consider `COCC1N=C(c2cc(OC)c(OC)c(OC)c2-c2cc3c(cc2[C@@H](C)O)OCO3)O[C@H]1c1ccccc1` (stereo not given in full), for which the TGI in assay [1] is more than 100 µM; in assay [2] it was more than 100 µM; in [3] it was more than 100 µM; in [4], more than 100 µM; in assay [5] it was more than 100 µM; in [6] it was more than 95.5 µM. The TGI in assay [8], in [9] and in [10] was more than 100 µM each time.

As to `COc1cc(O)c2c(=O)c(OC)c(-c3ccc(OC)c(OC)c3)oc2c1.[Sn]`, the GI50 in assay [1] was more than 100 µM; in assay [3], 29.8 µM; in assay [4] it was more than 100 µM; in [6], more than 100 µM; in assay [8] it was more than 100 µM; in assay [10], more than 100 µM. The TGI in [1], in assay [2], in assay [3], in assay [4], in [5] and in assay [6] was more than 100 µM throughout. The TGI in assay [7], in assay [8] and in assay [10] was more than 100 µM each time.

For the molecule `N#CCN1CCCN(CC#N)CCN(CC#N)CCCN(CC#N)CC1`, the TGI is more than 100 µM in assay [1]; more than 100 µM in assay [2]; 65.8 µM in assay [3]; more than 100 µM in [4]; more than 100 µM in [5]; more than 100 µM in assay [7]. For the same molecule, the TGI in [8], in assay [9] and in assay [10] was more than 100 µM in each case.

Take `Nc1ccn(CCCC(c2ccccc2)P(=O)(O)O)c(=O)n1` (stereo not given): the TGI in assay [1], in assay [2], in [3], in assay [4], in assay [5] and in assay [7] was more than 100 µM each time. In addition, the TGI in assay [8], in [9] and in assay [10] was more than 100 µM in each case.

Consider `CN(C)CCNC(=O)c1cccc2[nH]c(-c3ccc(Cl)cc3)nc12`, for which the TGI in assay [1] was 31.5 µM; in [2], 25.1 µM; in assay [3], 13.8 µM; in assay [4] it was 17.5 µM; in assay [5], 12.8 µM; in [6], 34.3 µM. Moreover, the TGI in assay [8] worked out at 19.9 µM; in assay [9], 18 µM; in assay [10], 25.8 µM.

Turning to `CC(=O)N1CCN(CCCCN2c3ccccc3Sc3cc(N=[N+]=[N-])ccc32)CC1`, the TGI was 29.6 µM in assay [1]; 30.9 µM in [3]; 9.21 µM in assay [4]; 24.9 µM in assay [5]; 32.7 µM in assay [6]; 31.3 µM in [7]. The TGI was found to be 33 µM in assay [8], 27.6 µM in assay [9] and 29.1 µM in assay [10].

Consider `COc1cc(/C=C/C2=NN(c3cccc(S(=O)(=O)O)c3)C3(C2)SCC(=O)N3c2nc3ccccc3s2)cc(OC)c1OC` (stereo not given), for which the TGI in assay [1] was more than 100 µM; in [3], 40.7 µM; in assay [4], more than 100 µM; in [5], more than 100 µM; in [6], more than 100 µM; in assay [7], 93.3 µM. Also, the TGI in [8], in assay [9] and in assay [10] was more than 100 µM throughout.

As for `CCc1n[nH]c(=O)n1N=C(c1ccccc1)c1ccccc1`, the TGI in assay [1] was more than 100 µM; in [3] it was more than 100 µM; in assay [4] it was more than 100 µM; in assay [5], more than 100 µM; in [6] it was 93.3 µM; in assay [7] it was more than 100 µM. For the same molecule, the TGI in assay [8], in [9] and in assay [10] was more than 100 µM throughout.

Consider `C=C(C)[C@@H]1CCC2=C(CC[C@]3(C)[C@@H]([C@@H](CCC=C(C)C)C(=O)O)[C@H](O)C[C@@]23C)[C@@]1(C)CCC(=O)O`, for which the TGI in assay [1], in assay [2], in [3], in assay [5], in [6] and in assay [7] was more than 100 µM throughout. Besides, the TGI in assay [8], in assay [9] and in assay [10] was more than 100 µM throughout.

`c1ccc(Sc2nc(Sc3ccccc3)nc(Sc3ccccc3)n2)cc1`: the TGI in [1], in assay [2], in [3], in assay [4], in assay [5] and in assay [6] was more than 100 µM in each case. The TGI in assay [7], in assay [8] and in assay [9] was more than 100 µM throughout.
